Data taken from PubChem BioAssay AID330 (DTP/NCI, 2004).
Values joined by “and” are separate entries in the source; they are usually repeats but may differ in a detail not shown here. Equal entries are not always repeated. Toxic doses and inconclusive results are not listed. Rule for the calls: active = survival T/C of 150% or more; inactive = T/C below 125% in these data.

Tested on: P388 leukemia ip, CD2F1 mice, survival T/C
Experiment: NCI In Vivo Anticancer Drug Screen. Data for tumor model P388 Leukemia (intraperitoneal) in CD2F1 (CDF1) mice
Settings: endpoint: median survival time, higher = longer survival
Outline: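 Mice carrying the transplanted tumor received test compound or vehicle. Survival was recorded in each group, and the value is the treated-group measurement divided by that of the vehicle-treated control group.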

Measured: T/C

O=C1c2ccncc2C(=O)c2c1[nH]c1ccccc21
inactive: dose: 7.5 mg/kg/injection, schedule: Q04DX002 (ip), vehicle: Klucel (hydroxypropylcellulose) (HPC) 97 % of control | dose: 15.0 mg/kg/injection, schedule: Q04DX002 (ip), vehicle: Klucel (hydroxypropylcellulose) (HPC) 95 % of control | dose: 30.0 mg/kg/injection, schedule: Q04DX002 (ip), vehicle: Klucel (hydroxypropylcellulose) (HPC) 90 % of control and 97 % of control | dose: 60.0 mg/kg/injection, schedule: Q04DX002 (ip), vehicle: Klucel (hydroxypropylcellulose) (HPC) 95 % of control

O=[N+]([O-])c1cc(NC(=S)SCc2ccc3c(c2)OCO3)ccc1Cl
inactive: dose: 50.0 mg/kg/injection, schedule: Q01DX009 (ip), vehicle: suspension in saline 110 % of control | dose: 100.0 mg/kg/injection, schedule: Q01DX009 (ip), vehicle: suspension in saline 114 % of control | dose: 200.0 mg/kg/injection, schedule: Q01DX009 (ip), vehicle: suspension in saline 87 % of control

CCCCCCCCCCC1(O)OC(=O)C(C)=C1C (stereo not given)
inactive: dose: 12.5 mg/kg/injection, schedule: Q04DX003 (ip), vehicle: saline with Tween-80 100 % of control | dose: 25.0 mg/kg/injection, schedule: Q04DX003 (ip), vehicle: saline with Tween-80 101 % of control | dose: 50.0 mg/kg/injection, schedule: Q04DX003 (ip), vehicle: saline with Tween-80 100 % of control

C[Si](C)(C[P+](=O)[O][Sn]([CH3])([CH3])[O][P+](=O)C[Si](C)(C)c1ccccc1)c1ccccc1 (stereo not given)
inactive: dose: 3.75 mg/kg/injection, schedule: Q01DX005 (ip), vehicle: saline with Tween-80 100 % of control | dose: 7.5 mg/kg/injection, schedule: Q01DX005 (ip), vehicle: saline with Tween-80 93 % of control

CCCCCCCc1c(C)[nH]c2cc(OC)ccc2c1=O
inactive: dose: 50.0 mg/kg/injection, schedule: Q01DX009 (ip), vehicle: saline with Tween-80 93 % of control | dose: 100.0 mg/kg/injection, schedule: Q01DX009 (ip), vehicle: saline with Tween-80 95 % of control | dose: 200.0 mg/kg/injection, schedule: Q01DX009 (ip), vehicle: saline with Tween-80 94 % of control

OCc1nccn1-c1ccccc1
inactive: dose: 25.0 mg/kg/injection, schedule: Q04DX002 (ip), vehicle: suspension in saline 100 % of control | dose: 50.0 mg/kg/injection, schedule: Q04DX002 (ip), vehicle: suspension in saline 99 % of control | dose: 100.0 mg/kg/injection, schedule: Q04DX002 (ip), vehicle: suspension in saline 107 % of control | dose: 200.0 mg/kg/injection, schedule: Q04DX002 (ip), vehicle: suspension in saline 100 % of control

CC1(C)COCN(C2CCCCC2)C1
inactive: dose: 15.0 mg/kg/injection, schedule: Q01DX009 (ip), vehicle: saline with Tween-80 119 % of control | dose: 30.0 mg/kg/injection, schedule: Q01DX009 (ip), vehicle: saline with Tween-80 100 % of control | dose: 60.0 mg/kg/injection, schedule: Q01DX009 (ip), vehicle: saline with Tween-80 108 % of control

O=C1C(N=Nc2ccccc2)C(O)N(c2ccc(Cl)cc2)C(=S)N1c1cccc(Cl)c1Cl (stereo not given)
inactive: dose: 100.0 mg/kg/injection, schedule: Q04DX002 (ip), vehicle: Klucel (hydroxypropylcellulose) (HPC) 100 % of control | dose: 200.0 mg/kg/injection, schedule: Q04DX002 (ip), vehicle: Klucel (hydroxypropylcellulose) (HPC) 100 % of control | dose: 400.0 mg/kg/injection, schedule: Q04DX002 (ip), vehicle: Klucel (hydroxypropylcellulose) (HPC) 99 % of control
